Tested on: rabbit aortic rings
Assay: Assay B: In vitro vascular smooth muscle response for AII, antagonist activity in aortic rings
Format: cell-based
Details: for Assay B pA2: two determinations separated by /
Method: Assay B: In Vitro Vascular Smooth Muscle-Response for AII
The compounds of the invention were tested for antagonist activity in rabbit aortic rings. Male New Zealand white rabbits (2-2.5 kg) were sacrificed using an overdose of pentobarbital and exsanguinated via the carotid arteries. The thoracic aorta was removed, cleaned of adherent fat and connective tissue and then cut into 3-mm ring segments. The endothelium was removed from the rings by gently sliding a rolled-up piece of filter paper into the vessel lumen. The rings were then mounted in a water-jacketed tissue bath, maintained at 37° C., between moveable and fixed ends of a stainless steel wire with the moveable end attached to an FT03 Grass transducer coupled to a Model 7D Grass Polygraph for recording isometric force responses. The bath was filled with 20 ml of oxygenated (95% oxygen/5% carbon dioxide) Krebs solution of the following composition (mM); 130 NaCl, 15 NaHCO3, […], 1.2 NaH2PO4, 1.2 MgSO4, 2.5 CaCl2, and 11.4 glucose. The preparations were equilibrated for one hour before approximately one gram of passive tension was placed on the rings. Angiotensin II concentration-response curves were then recorded (3×10^−10 to 1×10^−5 M). Each concentration of AII was allowed to elicit its maximal contraction, and then AII was washed out repeatedly for 30 minutes before rechallenging with a higher concentration of AII. Aorta rings were exposed to the test antagonist at 10^−5 M for 5 minutes before challenging with AII. Adjacent segments of the same aorta ring were used for all concentration-response curves in the presence of absence of the test antagonist. The effectiveness of the test compound was expressed in terms of pA2 values and were calculated according to H. O. Schild [Br. J. Pharmacol. Chemother., 2, 189-206 (1947)]. The pA2 value is the concentration of the antagonist which increases the EC50 value for AII by a factor of two. Each test antagonist was evaluated in aorta rings from two rabbits.

CCCc1nc(CCC)n(Cc2ccc(-c3ccccc3-c3nnn[nH]3)cc2)n1 [Compound 12]
Assay B pA2: 8.59

CCCCCc1nc(CCCCC)n(Cc2ccc(-c3ccccc3-c3nnn[nH]3)cc2)n1 [Compound 13]
Assay B pA2: 8.85

CCCCc1nc(CCC)nn1Cc1ccc(-c2ccccc2-c2nnn[nH]2)cc1 [Compound 14]
Assay B pA2: 8.71

CCCCc1nc(CCC)n(Cc2ccc(-c3ccccc3-c3nnn[nH]3)cc2)n1 [Compound 15]
Assay B pA2: 8.30

CCCCc1nc(CCC(C)C)n(Cc2ccc(-c3ccccc3-c3nnn[nH]3)cc2)n1 [Compound 16]
Assay B pA2: 9.24

CCCCc1nc(CCC(C)C)nn1Cc1ccc(-c2ccccc2-c2nnn[nH]2)cc1 [Compound 17]
Assay B pA2: 8.40

CCCCc1ncnn1Cc1ccc(-c2ccccc2C(=O)O)cc1 [Compound 18]
Assay B pA2: 6.09

CCCCc1ncn(Cc2ccc(-c3ccccc3C(=O)O)cc2)n1 [Compound 19]
Assay B pA2: 5.35

CCCCc1nc(-c2ccccc2)n(Cc2ccc(-c3ccccc3-c3nnn[nH]3)cc2)n1 [Compound 22]
Assay B pA2: 6.46

CCCCc1nc(C(OC)OC)nn1Cc1ccc(-c2ccccc2-c2nnn[nH]2)cc1 [Compound 24]
Assay B pA2: 7.73

CCCCc1nc(CCc2ccccc2)n(Cc2ccc(-c3ccccc3-c3nnn[nH]3)cc2)n1 [Compound 25]
Assay B pA2: 6.73

CCCCc1nc(CCc2ccccc2)nn1Cc1ccc(-c2ccccc2-c2nnn[nH]2)cc1 [Compound 26]
Assay B pA2: 9.66

CCCCc1nc(C(=O)CCC)nn1Cc1ccc(-c2ccccc2-c2nnn[nH]2)cc1 [Compound 30]
Assay B pA2: 7.88

CCCCc1nc(CNC(=O)OC(C)(C)C)nn1Cc1ccc(-c2ccccc2-c2nnn[nH]2)cc1 [Compound 35]
Assay B pA2: 7.47

CCCCc1nc(CN)n(Cc2ccc(-c3ccccc3-c3nnn[nH]3)cc2)n1 [Compound 36]
Assay B pA2: 5.68

CCCCc1nc(CC(OCC)OCC)n(Cc2ccc(-c3ccccc3-c3nnn[nH]3)cc2)n1 [Compound 37]
Assay B pA2: 6.85

CCCCc1nc(CC)nn1Cc1ccc(-c2ccccc2-c2nnn[nH]2)cc1 [Compound 39]
Assay B pA2: 7.84

CCCCc1nc(CNC(=O)CCC(NC(C)=O)C(=O)OC(C)(C)C)nn1Cc1ccc(-c2ccccc2-c2nnn[nH]2)cc1 (centres unmarked) [Compound 41]
Assay B pA2: 5.96

CCCCc1nc(CCC2CCCCC2)n(Cc2ccc(-c3ccccc3-c3nnn[nH]3)cc2)n1 [Compound 42]
Assay B pA2: 6.26

CCCCc1nc(CCCO)nn1Cc1ccc(-c2ccccc2-c2nnn[nH]2)cc1 [Compound 45]
Assay B pA2: 8.24

CCCCc1nc(CCCO)n(Cc2ccc(-c3ccccc3-c3nnn[nH]3)cc2)n1 [Compound 46]
Assay B pA2: 6.64

CCCCc1nc(C(F)F)nn1Cc1ccc(-c2ccccc2-c2nnn[nH]2)cc1 [Compound 47]
Assay B pA2: 7.58

CCCCc1nc(C(=O)Cc2ccccc2)nn1Cc1ccc(-c2ccccc2-c2nnn[nH]2)cc1 [Compound 50]
Assay B pA2: 7.89

CCCCc1nc(C(F)(F)Cc2ccccc2)nn1Cc1ccc(-c2ccccc2-c2nnn[nH]2)cc1 [Compound 51]
Assay B pA2: 8.51

CCCCc1nc(C(=O)O)nn1Cc1ccc(-c2ccccc2-c2nnn[nH]2)cc1 [Compound 52]
Assay B pA2: 8.12

CCCCc1ncnn1Cc1ccc(-c2ccccc2-c2nnn[nH]2)cc1 [Compound 53]
Assay B pA2: 7.83

CCCCc1nc(CCCC2CCCCC2)nn1Cc1ccc(-c2ccccc2-c2nnn[nH]2)cc1 [Compound 58]
Assay B pA2: 6.57

CCCCc1nc(CC23CC4CC(CC(C4)C2)C3)nn1Cc1ccc(-c2ccccc2-c2nnn[nH]2)cc1 [Compound 62]
Assay B pA2: 8.61

CCCCc1nc(CCC(=O)O)nn1Cc1ccc(-c2ccccc2-c2nnn[nH]2)cc1 [Compound 63]
Assay B pA2: 7.67

CCCCc1nc(CCC(=O)O)n(Cc2ccc(-c3ccccc3-c3nnn[nH]3)cc2)n1 [Compound 64]
Assay B pA2: 6.77

CCCCc1nc(C2CCCCC2)n(Cc2ccc(-c3ccccc3-c3nnn[nH]3)cc2)n1 [Compound 65]
Assay B pA2: 7.75

CCCCc1nc(CCCNC(=O)OC(C)(C)C)n(Cc2ccc(-c3ccccc3-c3nnn[nH]3)cc2)n1 [Compound 67]
Assay B pA2: 5.78

CCCCc1nc(CCCN)n(Cc2ccc(-c3ccccc3-c3nnn[nH]3)cc2)n1 [Compound 71]
Assay B pA2 column, result given as symbol: * (Antagonist Activity not observed up to 10 μM of test compound.)

CCCCc1nc(CCCN)nn1Cc1ccc(-c2ccccc2-c2nnn[nH]2)cc1 [Compound 72]
Assay B pA2: 6.10

CCCCc1nc(CC2CCCCC2)n(Cc2ccc(-c3ccccc3-c3nnn[nH]3)cc2)n1 [Compound 73]
Assay B pA2: 7.46

CCCCc1nc(CC2CCCCC2)nn1Cc1ccc(-c2ccccc2-c2nnn[nH]2)cc1 [Compound 74]
Assay B pA2: 8.39

CCCCc1nc(CC)n(Cc2ccc(-c3ccccc3C(=O)O)cc2)n1 [Compound 76]
Assay B pA2: 5.78

CCCCc1nc2c(OC(=O)C(C)C)nnc(O)c2n1Cc1ccc(-c2ccccc2-c2nnn[nH]2)cc1 [Compound 119]
Assay B pA2: 9.00

CCCCc1nc2c(OC(=O)C3CCCCC3)nnc(O)c2n1Cc1ccc(-c2ccccc2-c2nnn[nH]2)cc1 [Compound 120]
Assay B pA2: 8.77

CCCCc1nc2c(OC(=O)Cc3ccccc3)nnc(O)c2n1Cc1ccc(-c2ccccc2-c2nnn[nH]2)cc1 [Compound 124]
Assay B pA2: 9.12

CCCCc1nc(Cc2ccc(-c3ccccc3C(=O)O)cc2)n(CCCC)n1 [Compound 126]
Assay B pA2: 7.05

CCCCc1nc(Cc2ccc(-c3ccccc3-c3nnn[nH]3)cc2)n(CCCC)n1 [Compound 128]
Assay B pA2: 8.40

CCCCn1nc(C(F)(F)CCC)nc1Cc1ccc(-c2ccccc2-c2nnn[nH]2)cc1 [Compound 130]
Assay B pA2: 7.94

CCCCc1nc(Cc2ccc(-c3ccccc3-c3nnn[nH]3)nc2)n(CCCC)n1 [Compound 150]
Assay B pA2: 7.80

CCCCn1nc(CCc2ccccc2)nc1Cc1ccc(-c2ccccc2-c2nnn[nH]2)nc1 [Compound 151]
Assay B pA2: 7.97

CCCCn1nc(CCC)nc1Cc1ccc(-c2ccccc2-c2nnn[nH]2)nc1 [Compound 152]
Assay B pA2: 7.23

CCCCn1nc(/C=C/c2cccs2)nc1Cc1ccc(-c2ccccc2-c2nnn[nH]2)nc1 [Compound 154]
Assay B pA2: 8.38

CCCCn1nc(-c2ccccc2Cl)nc1Cc1ccc(-c2ccccc2-c2nnn[nH]2)nc1 [Compound 158]
Assay B pA2: 8.14

CCCCn1nc(C(=O)CCC)nc1Cc1ccc(-c2ccccc2-c2nnn[nH]2)nc1 [Compound 160]
Assay B pA2: 7.71

CCCn1nc(C(C)(F)F)nc1Cc1ccc(-c2ccccc2-c2nnn[nH]2)nc1 [Compound 165]
Assay B pA2: 7.18

CCCCn1nc(C(C)(F)F)nc1Cc1ccc(-c2ccccc2-c2nnn[nH]2)nc1 [Compound 166]
Assay B pA2: 7.74

CCCn1nc(C(F)(F)CC)nc1Cc1ccc(-c2ccccc2-c2nnn[nH]2)nc1 [Compound 167]
Assay B pA2: 7.11

CCCCn1nc(C(F)(F)CC)nc1Cc1ccc(-c2ccccc2-c2nnn[nH]2)nc1 [Compound 168]
Assay B pA2: 7.58

CCCn1nc(C(F)(F)CCC)nc1Cc1ccc(-c2ccccc2-c2nnn[nH]2)nc1 [Compound 169]
Assay B pA2: 7.58

CCCCn1nc(C(=O)NC)nc1Cc1ccc(-c2ccccc2-c2nnn[nH]2)nc1 [Compound 172]
Assay B pA2: 7.04

CCCn1nc(C(OC)OC)nc1Cc1ccc(-c2ccccc2-c2nnn[nH]2)nc1 [Compound 174]
Assay B pA2: 7.02

CCCCn1nc(C(OCC)OCC)nc1Cc1ccc(-c2ccccc2-c2nnn[nH]2)nc1 [Compound 176]
Assay B pA2: 7.55

CCCCn1nc(C(OC(C)C)OC(C)C)nc1Cc1ccc(-c2ccccc2-c2nnn[nH]2)nc1 [Compound 178]
Assay B pA2: 7.47

CCCCc1nc(CCCC)n(Cc2ccc(-c3ccccc3-c3nnn[nH]3)cn2)n1 [Compound 239]
Assay B pA2: 8.01

CCCc1nc(CCC)n(Cc2ccc(-c3ccccc3-c3nnn[nH]3)nc2)n1 [Compound 246]
Assay B pA2: 7.59

CCCCc1nc(C(F)(F)CCC)nn1Cc1ccc(-c2ccccc2-c2nnn[nH]2)nc1 [Compound 247]
Assay B pA2: 8.41

CCCCc1nc(C(F)(F)CCC)n(Cc2ccc(-c3ccccc3-c3nnn[nH]3)nc2)n1 [Compound 248]
Assay B pA2: 7.50

CCCCc1nc(C(=O)N(C)C(C)(C)C)nn1Cc1ccc(-c2ccccc2-c2nnn[nH]2)nc1 [Compound 255]
Assay B pA2: 7.46

CCCCc1nc(C(=O)NC)nn1Cc1ccc(-c2ccccc2-c2nnn[nH]2)nc1 [Compound 257]
Assay B pA2: 6.68

CCCCc1nc(C)nn1Cc1ccc(-c2ccccc2C(=O)O)cc1 [Compound 280]
Assay B pA2: 6.35
